# According to patent publication US6328998A, “Composition comprising L-carnitine or an alkanoyl L-carnitine and long-chain alkanols” (Sigma-Tau Industrie Farmaceutiche Riunite S.p.A., priority 1997, dated 2001):
# Legend:
# [1] = tested on: ATP content of the papillary muscle; experiment: ATP concentrations in papillary muscle of rabbits with induced hypoxia; format: in vivo, New Zealand rabbits; conditions: L-carnitine 100 mg/kg, hexacosanol 10 mg/kg or both, i.v. daily for 3 days; for ATP content after hypoxia: 60 min of hypoxia, controls 0.45 ± 0.03; for ATP content before hypoxia: normal perfusion 90 min, controls 1.65 ± 0.28
# Method: These tests were performed in New Zealand rabbits with a mean body weight of 2 kg, receiving daily intravenous injections of a solution containing 100 mg/kg of L-carnitine or 10 mg/kg of hexacosanol, or of the two substances combined at the same doses, for 3 consecutive days. A group of animals received no treatment and served as the control group.
# All the animals treated were sacrificed along with the controls at the end of the third day of treatment two hours after the last injection. The hearts were removed and equal sections of papillary muscle measuring 1 mm in diameter and 4-5 mm in thickness were isolated. These tissues were perfused in a thermostatic bath with a (100%) saturated O2 solution. Experimental hypoxia conditions were induced by introducing N2 (100%) into the bath in place of O2. […] The analysis was done on tissue samples maintained under normal perfusion conditions for 90 min and after 60 min of hypoxia.
# [2] = tested on: atherosclerotic lesions (abdominal aorta); experiment: Experimental atherosclerosis tests (atherogenic diet); format: in vivo, Wistar male rats; conditions: abdominal aorta thickness and Sudan IV staining, 1- to 5-point score
# Method: D2 200 m STU/g diet. The anti-atherogenic effect of both L-carnitine and hexacosanol were evaluated by using morphometric methods to measure the thickness of the abdominal aorta and the intensity of the staining induced by Sudan IV, with a 1- to 5-point scoring system, according to the degree of severity.
# [3] = tested on: left ventricular arrhythmias due to myocardial anoxia; experiment: Cardiac anoxia induced by coronary ligation (left ventricular arrhythmias); format: in vivo, Male Wistar rats; conditions: for Start of arrhythmias / Total ectopic contractions during 30 min after coronary ligation: L-carnitine 100 mg/kg, hexacosanol 10 mg/kg or both into left ventricle 15 min before ligation; for Start of arrhythmias: controls 4-7; for Total ectopic contractions during 30 min after coronary ligation: controls 992 ± 118; for ability to reduce ectopic contractions (in words): administered alone
# Method: These tests were performed to evaluate the protective action of L-carnitine and hexacosanol and their combination on left ventricular arrhythmias due to myocardial anoxia induced by coronary ligation according to the technique described by Selych et cal. (Angiology 11-398, 1960) and by Clark et al. (J Pharmacol Methods 3-357, 1980). Male Wistar rats with a mean body weight of 350-400 g were submitted to surgical occlusion of the left coronary artery. Arrhythmias set in within 4-7 min of coronary ligation. Ventricular ectopic contractions were then counted during a period of 30 min both in a group of control rats and in the groups of rats receiving slow injection of a solution containing L-carnitine (100 mg/kg), hexacosanol (10 mg/kg) or the two substances in combination at the same doses into the left ventricle 15 min before ligation.
# blood cholesterol = experiment: Experimental cholesterolaemia tests; format: in vivo; conditions: for total cholesterol: daily for six weeks with cholesterolaemia-lowering diet, L-carnitine 100 mg/kg, hexacosanol 10 mg/kg or both, controls 95.2 ± 5.4, hypercholesterolaemic controls 285.7 ± 11.2; for cholesterolaemia-lowering action (in words): six weeks
# Text: In experimental cholesterolaemia, too, a marked synergistic effect of the L-carnitine plus hexacosanol combination was detected. In these tests, the experimental cholesterolaemia was induced according to the method described by Sirtori (Sirtori CR, Atherosclerosis 26-27, 1977). Treatment both With L-carnitine and hexacosanol, as well as with the two compounds in combination, was continued daily for six weeks, in conjunction with a cholesterolaemia-lowering diet. On completing the six weeks of treatment, blood cholesterol was assayed both in control animals put on a cholesterolaemia-lowering diet alone and in animals treated with L-carnitine, or with hexacosanol, or with the two compounds in combination. Using the assay method described by Roschlan (Roschlan P, Clin Chem Clin Biochem 12: 403, 1975).
# platelet aggregation = experiment: Platelet aggregation inhibition tests (collagen-induced); format: cell-based, healthy volunteers; conditions: collagen 2.5 ng/mL, 10 min incubation
# Method: The tests were performed using plasma from healthy volunteers containing at least 300,000 platelets/mm^3.
# The platelet count was done using a CA 580A Platelet Counter (Delcon). Platelet aggregation was induced using collagen as the aggregating agent at doses of 2.5 and 5 ng/mL according to the technique described by Born and Cross (Born YVR, Cross M, J Physiol 26: 25, 1963).
# Platelet aggregation was determined photometrically (Born VJR, Nature 194: 927, 1962) using an Elvi 840 aggregometer.
# Platelet aggregation was measured in basal conditions and after 10 min of incubation with L-carnitine, hexacosanol and the L-carnitine-hexacosanol combination.
# [4] = Acute oral toxicity in mice; format: in vivo; conditions: 2 g/kg L-carnitine or 500 mg/kg hexacosanol, alone or in combination
# [5] = Acute oral toxicity in rats; format: in vivo; conditions: 2 g/kg L-carnitine or 500 mg/kg hexacosanol, alone or in combination
# [6] = Prolonged daily administration (30 days) tolerability, body weight, blood chemistry and histology; format: in vivo, rats and mice; conditions: daily for 30 days; carnitine 250 mg/kg or hexacosanol 20 mg/kg, alone or in combination
# Text: Moreover, no abnormalities were found at histological examination of the parenchyma of the main organs (heart, lungs, kidneys, adrenal glands and pancreas).
"IC50 (platelet aggregation; Homo sapiens, Platelet, 10 min, read-out: ED50, inhibition of platelet aggregation induced by collagen)",Compound,ATP content after hypoxia [1],ATP content before hypoxia [1],severity/occurrence of atherosclerotic lesions (in words) [2],Start of arrhythmias [3],Total ectopic contractions during 30 min after coronary ligation [3],ability to reduce ectopic contractions (in words) [3],total cholesterol (blood cholesterol),cholesterolaemia-lowering action (in words) (blood cholesterol),effect on platelet aggregation induced by collagen (in words) (platelet aggregation),mortality [4],signs of toxicity [4],mortality [5],signs of toxicity [5],signs of toxic reactions or of poor tolerability [6]
5.5 ng/mL,CCCCCCCCCCCCCCCCCCCCCCCCCCO [Hexacosanol],0.77 ± 0.05 µmol/g tissue,1.7 ± 0.3 µmol/g tissue,capable of reducing the severity of the atherosclerotic lesions,5 to 7 min,810 ± 190,only a very limited ability to reduce ectopic contractions,268.5 ± 5.6 mg/dL,fairly modest,only partly inhibiting the platelet aggregation,,,,,
,C[N+](C)(C)C[C@H](O)CC(=O)[O-] [L-carnitine],0.67 ± 0.02 µmol/g tissue,1.77 ± 0.25 µmol/g tissue,capable of reducing the severity of the atherosclerotic lesions,4 to 7 min,860 ± 202,only a very limited ability to reduce ectopic contractions,265.5 ± 6.1 mg/dL,fairly modest,not changed,without any mortality,without any evident signs of toxicity,without any mortality,without any evident signs of toxicity,failed to produce any signs of toxic reactions or of poor tolerability
